According to patent US20050148254A1, “Light-activated biocidal polyelectrolytes” (priority 2003, published 2005):

System: Bacillus anthracis spores
Format: cell-based, Bacillus anthracis (Sterne)

| SMILES | % killing | Spore colonies | reduction in bacterial survival | reduction of bacterial survival | inhibition of B. anthracis survival | reduction in survival for B. anthracis |
| --- | --- | --- | --- | --- | --- | --- |
| CCCCCCCCCCCC[N+](C)(C)C.[Br-] [DTAB, dodecyltrimethylammonium bromide] | 40% | 84 ± 4 | approximately 40% | approximately 40% |  |  |
| CN(C)c1ccc2nc3ccc(=[N+](C)C)cc-3sc2c1 [MB, methylene blue] |  |  |  |  | no inhibition | 75% |
| O=C1OC2(c3cc(I)c(O)c(I)c3Oc3c2cc(I)c(O)c3I)c2c(Cl)c(Cl)c(Cl)c(Cl)c21 [RBL, Rose Bengal lactone] |  |  |  |  |  | approximately 40% |
